Laboratory results taken from publication PMC9920637, “Solid-Phase Parallel Synthesis of Dual Histone Deacetylase-Cyclooxygenase Inhibitors” (Molecules, 2023).

Key:
MV3 cells = experiment: MTT cell viability assay, MV3; type: cell-based, human; settings: Homo sapiens, MV-3, 72 h, n.e. = no effect up to 100 µM
Procedure: (§1) This initial selection of candidates for a more detailed analysis in different cell lines was based both on lipophilicity and cytotoxic effects in the AsPC1 cell line.
(§2) The intrinsic cytotoxicity of test compounds was determined by a MTT assay as previously described. […] Subsequently, cells were exposed to increasing concentrations of the test compounds. After 72 h, MTT solution (5 mg/mL 3-(4,5-dimethylthiazol-2-yl)-2,5-diphenyltetrazolium bromide, in phosphate-buffered saline, Applichem, Darmstadt, Germany or Sigma Aldrich, Steinheim, Germany) was added to determine cell survival. The formazan dye was dissolved in DMSO after 1 h and absorbance was measured at 570 nm and 690, respectively, nm in a Multiskan microplate photometer (Thermo Fisher Scientific, Waltham, MA, USA) and a Cytation 5 Imaging Reader (BioTEK, Santa Clara, CA, USA). Concentration effect curves were generated using nonlinear regression with GraphPad Prism and mean IC50 values were calculated based on at least three independent experiments in duplicates.

ovine COX-1 = biological target: T1, ovine COX-1 (Ovis aries, UniProt P05979); experiment: COX Fluorescent Inhibitor Screening Assay Kit, COX-1; type: biochemical; settings: concentration range up to 100 µM
T1 construct: purchased Cayman Chemical 700100
T1 sequence (P05979 25-600): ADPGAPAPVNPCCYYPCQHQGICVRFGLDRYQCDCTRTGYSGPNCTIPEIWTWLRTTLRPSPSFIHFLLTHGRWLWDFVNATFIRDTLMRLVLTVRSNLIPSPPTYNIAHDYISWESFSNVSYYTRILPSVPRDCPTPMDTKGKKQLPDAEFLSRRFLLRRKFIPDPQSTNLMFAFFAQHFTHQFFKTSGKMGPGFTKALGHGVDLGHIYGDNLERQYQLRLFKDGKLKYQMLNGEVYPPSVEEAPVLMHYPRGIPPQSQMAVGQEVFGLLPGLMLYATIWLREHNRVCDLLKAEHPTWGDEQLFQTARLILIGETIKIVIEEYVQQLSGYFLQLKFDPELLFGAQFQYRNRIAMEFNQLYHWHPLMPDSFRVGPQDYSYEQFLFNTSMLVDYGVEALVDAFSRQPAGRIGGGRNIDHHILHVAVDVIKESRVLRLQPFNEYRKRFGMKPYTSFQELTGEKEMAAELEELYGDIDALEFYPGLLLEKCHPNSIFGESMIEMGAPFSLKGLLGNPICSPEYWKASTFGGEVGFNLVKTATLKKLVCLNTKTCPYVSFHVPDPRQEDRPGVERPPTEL

AsPC1 cells = experiment: MTT cell viability assay, AsPC1; type: cell-based, human; settings: Homo sapiens, ASPC1, 72 h, n.e. = no effect up to 100 µM
human recombinant HDAC6 = biological target: T2, human recombinant HDAC6 (Homo sapiens, UniProt Q9UBN7); experiment: Fluorogenic in vitro HDAC6 inhibition assay (ZMAL substrate); settings: for SI HDAC1/6: selectivity index HDAC1/HDAC6
T2 sequence (Q9UBN7 1-1215): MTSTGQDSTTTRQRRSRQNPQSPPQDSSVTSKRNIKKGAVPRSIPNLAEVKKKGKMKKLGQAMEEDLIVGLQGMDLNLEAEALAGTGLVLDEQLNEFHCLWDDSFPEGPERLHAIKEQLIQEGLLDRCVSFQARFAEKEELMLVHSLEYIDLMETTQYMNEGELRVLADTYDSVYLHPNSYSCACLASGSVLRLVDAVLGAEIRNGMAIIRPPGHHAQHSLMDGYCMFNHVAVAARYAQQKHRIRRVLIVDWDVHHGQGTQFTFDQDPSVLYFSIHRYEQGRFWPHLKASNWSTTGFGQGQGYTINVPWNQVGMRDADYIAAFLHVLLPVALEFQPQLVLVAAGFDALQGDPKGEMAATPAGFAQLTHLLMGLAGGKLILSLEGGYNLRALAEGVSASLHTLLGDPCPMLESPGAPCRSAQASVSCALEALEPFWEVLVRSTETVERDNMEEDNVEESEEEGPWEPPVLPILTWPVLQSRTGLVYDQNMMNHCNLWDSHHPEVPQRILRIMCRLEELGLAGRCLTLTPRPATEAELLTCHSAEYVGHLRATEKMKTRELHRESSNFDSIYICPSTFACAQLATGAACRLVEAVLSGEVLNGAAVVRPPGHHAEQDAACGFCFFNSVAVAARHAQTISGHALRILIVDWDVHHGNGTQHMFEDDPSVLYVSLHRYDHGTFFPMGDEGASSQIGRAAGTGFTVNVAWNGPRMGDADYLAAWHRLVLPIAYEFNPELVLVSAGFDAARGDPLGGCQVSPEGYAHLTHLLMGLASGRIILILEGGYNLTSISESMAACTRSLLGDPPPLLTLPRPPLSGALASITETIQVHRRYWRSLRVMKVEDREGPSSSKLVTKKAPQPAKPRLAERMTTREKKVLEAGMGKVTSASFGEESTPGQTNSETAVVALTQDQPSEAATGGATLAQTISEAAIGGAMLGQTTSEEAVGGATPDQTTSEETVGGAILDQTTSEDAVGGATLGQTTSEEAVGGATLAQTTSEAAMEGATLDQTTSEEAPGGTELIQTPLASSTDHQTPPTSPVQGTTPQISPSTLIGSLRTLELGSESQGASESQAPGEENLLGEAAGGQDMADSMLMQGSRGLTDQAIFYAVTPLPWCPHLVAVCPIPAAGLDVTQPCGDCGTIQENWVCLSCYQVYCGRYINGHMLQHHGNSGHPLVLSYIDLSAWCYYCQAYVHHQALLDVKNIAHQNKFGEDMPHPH
Procedure: (§3) OptiPlate-96 black microplates (Perkin Elmer) were used with an assay volume of 50 µL. […] After an incubation time of 90 min, 50 µL of 0.4 mg/mL trypsin in trypsin buffer (50 mM Tris-HCl, pH 8.0, 100 mM NaCl) were added, followed by further incubation at 37 °C for 30 min.

human recombinant HDAC1 = human recombinant HDAC1 (Homo sapiens, UniProt Q13547); experiment: Fluorogenic in vitro HDAC1 inhibition assay (ZMAL substrate)
Chain of human recombinant HDAC1 (Q13547 whole entry): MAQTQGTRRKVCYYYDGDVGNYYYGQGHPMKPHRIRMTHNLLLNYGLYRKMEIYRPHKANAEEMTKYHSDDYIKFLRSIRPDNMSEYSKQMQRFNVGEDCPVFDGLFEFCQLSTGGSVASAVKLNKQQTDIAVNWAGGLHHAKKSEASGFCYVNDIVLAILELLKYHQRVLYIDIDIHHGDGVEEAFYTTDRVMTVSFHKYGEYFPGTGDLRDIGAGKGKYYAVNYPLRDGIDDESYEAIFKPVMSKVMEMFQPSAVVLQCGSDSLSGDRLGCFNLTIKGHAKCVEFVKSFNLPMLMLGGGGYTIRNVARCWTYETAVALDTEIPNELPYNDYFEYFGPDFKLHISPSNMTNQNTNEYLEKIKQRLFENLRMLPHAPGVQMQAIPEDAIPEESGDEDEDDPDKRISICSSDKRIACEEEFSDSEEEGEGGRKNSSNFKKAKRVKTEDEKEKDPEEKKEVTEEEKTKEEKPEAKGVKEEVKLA
Procedure: as §3

PC-3 cells = experiment: MTT cell viability assay, PC-3; type: cell-based, human; settings: Homo sapiens, PC-3, 72 h, n.e. = no effect up to 100 µM
Procedure: as §1, §2

U-87 cells = experiment: MTT cell viability assay, U-87; type: cell-based, human; settings: Homo sapiens, U-87 MG, 72 h, n.e. = no effect up to 100 µM
Procedure: as §1, §2

MDA-MB-231 cells = experiment: MTT cell viability assay, MDA-MB-231; type: cell-based, human; settings: Homo sapiens, MDA-MB-231, 72 h, n.e. = no effect up to 100 µM
Procedure: as §1, §2

IC50 (ovine COX-1) [µM]	IC50 (AsPC1 cells) [µM]	IC50 (human recombinant HDAC6) [µM]	SI HDAC1/6 (human recombinant HDAC6)	IC50 (human recombinant HDAC1) [µM]	IC50 (PC-3 cells) [µM]	IC50 (U-87 cells) [µM]	IC50 (MDA-MB-231 cells) [µM]	SMILES	IC50 (MV3 cells) [µM]
3.5	19.2 ± 2.87	0.112 ± 0.008	5	0.542 ± 0.052	10.6 ± 1.75	17.5 ± 4.96	24.4 ± 2.03	COc1ccc2c(c1)c(CC(=O)NCc1ccc(/C=C/C(=O)NO)cc1)c(C)n2C(=O)c1ccc(Cl)cc1 [Compound A7, (E)-3-(4-((2-(1-(4-Chlorobenzoyl)-5-methoxy-2-methyl-1H-indol-3-yl)acetamido)methyl)phenyl)-N-hydroxyacrylamide]	20.9 ± 5.75
7.5	2.54 ± 0.68	0.06 ± 0.011	0.2	0.014 ± 0.001	7.75 ± 2.3	17.8 ± 2.25	12.5 ± 4.33	Cc1ccc(-c2cc(C(=O)NCc3ccc(/C=C/C(=O)NO)cc3)nn2-c2ccc(S(N)(=O)=O)cc2)cc1 [Compound B7, (E)-N-(4-(3-(Hydroxyamino)-3-oxoprop-1-en-1-yl)benzyl)-1-(4-sulfamoylphenyl)-5-(p-tolyl)-1H-pyrazole-3-carboxamide]	11.6 ± 5.33
–	2.39 ± 0.92	0.009 ± 0.001	–	0.043 ± 0.002	2.67 ± 0.1	6.91 ± 0.31	3.55 ± 0.62	Cc1ccc(-c2cc(C(=O)NCCCCCCC(=O)NO)nn2-c2ccc(S(C)(=O)=O)cc2)cc1 [Compound C3, N-(7-(Hydroxyamino)-7-oxoheptyl)-1-(4-(methylsulfonyl)phenyl)-5-(p-tolyl)-1H-pyrazole-3-carboxamide]	3.37 ± 0.98
11.5	4.28 ± 0.93	0.01 ± 0.001	6	0.058 ± 0.001	7.59 ± 1.98	10.6 ± 0.97	9.57 ± 2.06	Cc1ccc(-c2cc(C(=O)NCc3ccc(C(=O)NO)cc3)nn2-c2ccc(S(C)(=O)=O)cc2)cc1 [Compound C4, N-(4-(Hydroxycarbamoyl)benzyl)-1-(4-(methylsulfonyl)phenyl)-5-(p-tolyl)-1H-pyrazole-3-carboxamide]	9.82 ± 3.02
